Experimental data published in ChEMBL document CHEMBL1799998, “Exploration of antimicrobial and antioxidant potential of newly synthesized 2,3-disubstituted quinazoline-4(3H)-ones” (Bioorg Med Chem Lett, 2011).

Key:
Assay type in all cases: functional
Bacillus subtilis = assay: Antimicrobial activity against Bacillus subtilis after 24 hrs by disc diffusion method; note: test concentration or dose not given here
[1] = test system: Radical scavenging activity; assay: Antioxidant activity against DPPH free radical assessed as compound able to consume half the initial amount of DPPH free radical by spectrophotometry; details: TDE = time-dependent effect
[2] = test system: Radical scavenging activity; assay: Antioxidant activity against DPPH free radical assessed as compound able to consume half the initial amount of DPPH free radical after 30 to 60 mins by spectrophotometry
Staphylococcus aureus = assay: Antimicrobial activity against Staphylococcus aureus after 24 hrs by disc diffusion method; note: test concentration or dose not given here
Pseudomonas aeruginosa = assay: Antimicrobial activity against Pseudomonas aeruginosa after 24 hrs by disc diffusion method; note: test concentration or dose not given here
Escherichia coli = assay: Antimicrobial activity against Escherichia coli after 24 hrs by disc diffusion method; note: test concentration or dose not given here

## CC1=NC(=S)N(n2c(CCl)nc3ccccc3c2=O)C(=O)C1/N=N/c1ccc(O)c([N+](=O)[O-])c1 (centres undefined)
Bacillus subtilis
  inhibition zone (IZ): 20 mm
[1]
  Activity: tde
[2]
  Activity: Dose-dependent effect
  IC50: 8.6 µM
Staphylococcus aureus
  inhibition zone (IZ): 29 mm
Pseudomonas aeruginosa
  inhibition zone (IZ): 12 mm
Escherichia coli
  inhibition zone (IZ): 14 mm

## CC1=NC(=S)N(n2c(CCl)nc3ccccc3c2=O)C(=O)C1/N=N/c1ccc(O)c(O)c1 (centres undefined)
Bacillus subtilis
  inhibition zone (IZ): 27 mm
[1]
  Activity: tde
[2]
  Activity: Dose-dependent effect
  IC50: 1.4 µM
Staphylococcus aureus
  inhibition zone (IZ): 31.5 mm
Pseudomonas aeruginosa
  inhibition zone (IZ): 16 mm
Escherichia coli
  inhibition zone (IZ): 17.5 mm

## CC1=NC(=S)N(n2c(CCl)nc3ccccc3c2=O)C(=O)C1/N=N/c1ccc(O)cc1 (centres undefined)
Bacillus subtilis
  inhibition zone (IZ): 18.5 mm
[1]
  Activity: tde
[2]
  Activity: Dose-dependent effect
  IC50: 5.4 µM
Staphylococcus aureus
  inhibition zone (IZ): 27 mm
Pseudomonas aeruginosa
  inhibition zone (IZ): 10 mm
Escherichia coli
  inhibition zone (IZ): 13.5 mm

## CC1=NC(=S)N(n2c(CCl)nc3ccccc3c2=O)C(=O)C1/N=N/c1ccc(O)cc1O (centres undefined)
Bacillus subtilis
  inhibition zone (IZ): 24.5 mm
[1]
  Activity: tde
[2]
  Activity: Dose-dependent effect
  IC50: 2.1 µM
Staphylococcus aureus
  inhibition zone (IZ): 30 mm
Pseudomonas aeruginosa
  inhibition zone (IZ): 13.5 mm
Escherichia coli
  inhibition zone (IZ): 15.5 mm

## CC1=NC(=S)N(n2c(CCl)nc3ccccc3c2=O)C(=O)C1/N=N/c1cccc(C)c1O (centres undefined)
Bacillus subtilis
  inhibition zone (IZ): 36.5 mm
[1]
  Activity: tde
[2]
  Activity: Dose-dependent effect
  IC50: 3.5 µM
Staphylococcus aureus
  inhibition zone (IZ): 44.5 mm
Pseudomonas aeruginosa
  inhibition zone (IZ): 23.5 mm
Escherichia coli
  inhibition zone (IZ): 27.5 mm

## CC1(C)S[C@@H]2[C@H](NC(=O)[C@H](N)c3ccccc3)C(=O)N2[C@H]1C(=O)O [AMPICILLIN]
Bacillus subtilis
  inhibition zone (IZ): 40 mm
Staphylococcus aureus
  inhibition zone (IZ): 36 mm
Pseudomonas aeruginosa
  inhibition zone (IZ): 20 mm
Escherichia coli
  inhibition zone (IZ): 28 mm

## CC1=NC(=S)N(n2c(CCl)nc3ccccc3c2=O)C(=O)C1/N=N/c1ccc(C)cc1O (centres undefined)
Bacillus subtilis
  inhibition zone (IZ): 33 mm
[1]
  Activity: tde
[2]
  Activity: Dose-dependent effect
  IC50: 5.1 µM
Staphylococcus aureus
  inhibition zone (IZ): 39 mm
Pseudomonas aeruginosa
  inhibition zone (IZ): 22 mm
Escherichia coli
  inhibition zone (IZ): 25 mm

## O=C1O[C@H]([C@@H](O)CO)C(O)=C1O [ASCORBIC ACID]
[2]
  IC50: 9.2 µM

## COc1ccc(/N=N/C2C(=O)N(n3c(CCl)nc4ccccc4c3=O)C(=S)N=C2C)cc1O (centres undefined)
Bacillus subtilis
  inhibition zone (IZ): 42.1 mm
[1]
  Activity: tde
[2]
  Activity: Dose-dependent effect
  IC50: 3 µM
Staphylococcus aureus
  inhibition zone (IZ): 47.5 mm
Pseudomonas aeruginosa
  inhibition zone (IZ): 28 mm
Escherichia coli
  inhibition zone (IZ): 30 mm

## CC1=NC(=S)N(n2c(CCl)nc3ccccc3c2=O)C(=O)C1/N=N/c1ccccc1 (centres undefined)
Bacillus subtilis
  inhibition zone (IZ): 16.2 mm
[1]
  Activity: tde
[2]
  Activity: Dose-dependent effect
Staphylococcus aureus
  inhibition zone (IZ): 24.5 mm
Pseudomonas aeruginosa
  inhibition zone (IZ): 7 mm
Escherichia coli
  inhibition zone (IZ): 11.5 mm

## CC1=NC(=S)N(n2c(CCl)nc3ccccc3c2=O)C(=O)C1/N=N/c1cccc(Cl)c1O (centres undefined)
Bacillus subtilis
  inhibition zone (IZ): 31.5 mm
[1]
  Activity: tde
[2]
  Activity: Dose-dependent effect
  IC50: 8.3 µM
Staphylococcus aureus
  inhibition zone (IZ): 33.5 mm
Pseudomonas aeruginosa
  inhibition zone (IZ): 21.5 mm
Escherichia coli
  inhibition zone (IZ): 20.9 mm

## CC1=NC(=S)N(n2c(CCl)nc3ccccc3c2=O)C(=O)C1/N=N/c1ccc(Cl)cc1O (centres undefined)
Bacillus subtilis
  inhibition zone (IZ): 29 mm
[1]
  Activity: tde
[2]
  Activity: Dose-dependent effect
  IC50: 7 µM
Staphylococcus aureus
  inhibition zone (IZ): 33 mm
Pseudomonas aeruginosa
  inhibition zone (IZ): 18.5 mm
Escherichia coli
  inhibition zone (IZ): 20.5 mm
